Results from the NIST ThermoML archive (doi:10.1021/je0201166).
Numbers after ± are expanded uncertainties.

Settings: Liquid; for mass density: 298.15 K, 101.33 kPa

mass density [kg/m3]	Normal boiling temperature [°C]	SMILES
1058.6 ± 5	75.42 ± 0.1	C1COCO1 [1,3-dioxolane]
786.7 ± 5	64.54 ± 0.1	CO [methanol]
997.2 ± 5	99.98 ± 0.1	O [water]
